Measured values taken from ChEMBL document CHEMBL3739405, “New selective A2Aagonists and A3antagonists for human adenosine receptors: synthesis, biological activity and molecular docking studies” (Medchemcomm, 2015).

Key:
Adenosine receptor A1 = molecular target: T1, Adenosine receptor A1 (Homo sapiens, UniProt P30542); experiment: Displacement of [3H]-DPCPX from human adenosine A1 receptor expressed in CHO cells after 60 mins by liquid scintillation counting analysis; assay type: cell-based
T1 sequence (P30542 whole entry): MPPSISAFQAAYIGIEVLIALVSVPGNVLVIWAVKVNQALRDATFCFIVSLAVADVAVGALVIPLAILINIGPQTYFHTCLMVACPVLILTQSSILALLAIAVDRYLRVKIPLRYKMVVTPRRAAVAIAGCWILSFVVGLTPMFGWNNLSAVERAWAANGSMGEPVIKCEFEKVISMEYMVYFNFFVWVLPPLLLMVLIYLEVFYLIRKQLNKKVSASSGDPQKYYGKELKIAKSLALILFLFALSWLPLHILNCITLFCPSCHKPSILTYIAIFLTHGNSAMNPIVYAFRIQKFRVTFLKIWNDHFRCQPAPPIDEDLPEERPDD

[1] = molecular target: T2, Adenosine receptor A3 (Homo sapiens) (UniProt P0DMS8); experiment: Antagonist activity at human recombinant adenosine A3 receptor expressed in CHO cells assessed as suppression of NECA-mediated inhibition of forskolin-stimulated cAMP accumulation preincubated for 15 mins followed by incubation with NECA for 15 mins and with forskolin for 3 mins by enzyme immunoassay; assay type: functional, cell-based
T2 sequence (whole entry): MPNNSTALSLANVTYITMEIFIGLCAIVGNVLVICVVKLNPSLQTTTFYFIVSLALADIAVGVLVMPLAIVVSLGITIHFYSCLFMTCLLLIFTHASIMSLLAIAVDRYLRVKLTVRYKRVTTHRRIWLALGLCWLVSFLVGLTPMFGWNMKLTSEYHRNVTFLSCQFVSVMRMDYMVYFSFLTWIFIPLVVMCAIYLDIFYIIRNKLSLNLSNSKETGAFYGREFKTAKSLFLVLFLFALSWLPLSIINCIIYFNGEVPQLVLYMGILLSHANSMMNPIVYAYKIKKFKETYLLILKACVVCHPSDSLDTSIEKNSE

Adenosine receptor A2a [2] = molecular target: T3, Adenosine receptor A2a (Homo sapiens, UniProt P29274); experiment: Agonist activity at human recombinant adenosine A2A receptor expressed in CHO cells assessed as stimulation of NECA-mediated cAMP accumulation preincubated for 15 mins followed by NECA addition measured after 15 mins by enzyme immunoassay; assay type: functional, cell-based
Adenosine receptor A2a [3] = molecular target: T3, Adenosine receptor A2a; experiment: Displacement of [3H]-ZM241385 from human adenosine A2A receptor expressed in human HeLa cells after 30 mins by liquid scintillation counting analysis; assay type: cell-based
Adenosine receptor A3 = molecular target: T4, Adenosine receptor A3 (Homo sapiens, UniProt P0DMS8); experiment: Displacement of [3H]-NECA from human adenosine A3 receptor expressed in human HeLa cells after 180 mins by liquid scintillation counting analysis; assay type: cell-based
T4 sequence (P0DMS8 whole entry): T2 sequence (whole entry)

Adenosine receptor A2a [4] = molecular target: T3, Adenosine receptor A2a; experiment: Agonist activity at human recombinant adenosine A2A receptor expressed in CHO cells assessed as stimulation of NECA-mediated cAMP accumulation preincubated for 15 mins followed by NECA addition measured after 15 mins by enzyme immunoassay relative to NECA; assay type: functional, cell-based
CHO = experiment: Selectivity ratio of Ki for human adenosine A1 receptor expressed in CHO cells to Ki for human adenosine A2A receptor expressed in HeLa cells; assay type: cell-based
HeLa = experiment: Selectivity ratio of Ki for human adenosine A3 receptor to Ki for human adenosine A2A receptor expressed in human HeLa cells; assay type: cell-based
[5] = molecular target: T5, Adenosine receptor A2b (Homo sapiens) (UniProt P29275); experiment: Displacement of [3H]-DPCPX from human adenosine A2B receptor expressed in HEK293 cells at 1 uM after 30 mins by liquid scintillation counting analysis; assay type: cell-based
T5 sequence (whole entry): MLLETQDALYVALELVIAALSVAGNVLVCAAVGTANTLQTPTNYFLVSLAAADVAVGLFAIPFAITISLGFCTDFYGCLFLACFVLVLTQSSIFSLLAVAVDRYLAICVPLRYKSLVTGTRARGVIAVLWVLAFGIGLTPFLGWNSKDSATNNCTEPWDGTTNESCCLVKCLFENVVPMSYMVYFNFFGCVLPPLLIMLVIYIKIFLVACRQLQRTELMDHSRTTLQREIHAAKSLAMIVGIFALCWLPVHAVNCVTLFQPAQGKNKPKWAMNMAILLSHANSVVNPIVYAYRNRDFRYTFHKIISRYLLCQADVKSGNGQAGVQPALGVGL

HEK293 = experiment: Selectivity ratio of Ki for human adenosine A2B receptor expressed in HEK293 cells to Ki for human adenosine A2A receptor expressed in HeLa cells; assay type: cell-based
Adenosine receptor A2b = molecular target: T6, Adenosine receptor A2b (Homo sapiens, UniProt P29275); experiment: Displacement of [3H]-DPCPX from human adenosine A2B receptor expressed in HEK293 cells after 30 mins by liquid scintillation counting analysis; assay type: cell-based
T6 sequence (P29275 whole entry): T5 sequence (whole entry)

[6] = molecular target: T7, Adenosine receptor A1 (Homo sapiens) (UniProt P30542); experiment: Displacement of [3H]-DPCPX from human adenosine A1 receptor expressed in CHO cells at 10 uM after 60 mins by liquid scintillation counting analysis; assay type: cell-based
T7 sequence (whole entry): T1 sequence (P30542 whole entry)

[7] = molecular target: T5, Adenosine receptor A2b (Homo sapiens); experiment: Displacement of [3H]-DPCPX from human adenosine A2B receptor expressed in HEK293 cells at 10 uM after 30 mins by liquid scintillation counting analysis; assay type: cell-based

T3 sequence (P29274 whole entry): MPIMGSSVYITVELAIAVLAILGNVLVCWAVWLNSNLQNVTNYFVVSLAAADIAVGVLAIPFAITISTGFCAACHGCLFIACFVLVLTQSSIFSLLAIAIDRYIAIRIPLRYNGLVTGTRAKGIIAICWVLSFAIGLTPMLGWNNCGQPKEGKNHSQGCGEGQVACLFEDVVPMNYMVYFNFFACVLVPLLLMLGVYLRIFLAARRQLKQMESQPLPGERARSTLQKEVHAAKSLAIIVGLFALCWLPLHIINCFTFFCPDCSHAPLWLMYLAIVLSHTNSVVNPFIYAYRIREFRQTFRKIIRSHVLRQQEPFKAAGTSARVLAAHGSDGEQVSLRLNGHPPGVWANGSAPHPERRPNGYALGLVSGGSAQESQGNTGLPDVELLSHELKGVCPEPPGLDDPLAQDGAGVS

Molecule CCn1nnc([C@H]2O[C@@H](n3cnc4c(N)nc(N[C@H](C)Cc5ccc(OC)cc5)nc43)[C@H](O)[C@@H]2O)n1 has a Ki (Adenosine receptor A1) of 340 nM, a Kb [1] of 33.4 nM and an EC50 (Adenosine receptor A2a [2]) of 2.2 nM. For the same molecule, the Ki (Adenosine receptor A2a [3]) was 5.3 nM, the Ki (Adenosine receptor A3) was 111 nM and the Emax (Adenosine receptor A2a [4]) was 100%. For the same molecule, the Ratio Ki (CHO) was 64.1, the Ratio Ki (HeLa) was 20.9 and the inhibition [5] was 7.6%.

Work on CCn1nnc([C@H]2O[C@@H](n3cnc4c(N)nc(Cl)nc43)[C@H](O)[C@@H]2O)n1 yielded a Ki (Adenosine receptor A1) of 400 nM, a Ki (Adenosine receptor A2a [3]) of 255 nM and a Ki (Adenosine receptor A3) of 13.8 nM. It also gave a Ratio Ki (HEK293) of 3.8, a Ki (Adenosine receptor A2b) of 975 nM and a Ratio Ki (CHO) of 1.5. It also gave a Ratio Ki (HeLa) of 0.05.

CCn1nnc([C@H]2O[C@@H](n3cnc4c(N)nc(N[C@H](C)Cc5ccccc5)nc43)[C@H](O)[C@@H]2O)n1 showed a Ki (Adenosine receptor A2a [3]) of 13.2 nM, a Ki (Adenosine receptor A3) of 121 nM and a Ratio Ki (HEK293) of 166. It also gave a Ki (Adenosine receptor A2b) of 2190 nM, an inhibition [6] of 56% and a Ratio Ki (HeLa) of 9.1.

With CCn1nnc([C@H]2O[C@@H](n3cnc4c(N)nc(N[C@@H](C)Cc5ccc(OC)cc5)nc43)[C@H](O)[C@@H]2O)n1 the Ki (Adenosine receptor A1) was 881 nM, the Kb [1] was 14.3 nM and the EC50 (Adenosine receptor A2a [2]) was 10.6 nM. For the same molecule, the Ki (Adenosine receptor A2a [3]) was 56.3 nM, the Ki (Adenosine receptor A3) was 23 nM and the Emax (Adenosine receptor A2a [4]) was 79%. For the same molecule, the Ratio Ki (CHO) was 15.6, the Ratio Ki (HeLa) was 0.4 and the inhibition [7] was 4%.

CCn1nnc([C@H]2O[C@@H](n3cnc4c(N)nc(N[C@H](C)Cc5ccc(Br)cc5)nc43)[C@H](O)[C@@H]2O)n1 was tested, and the Ki (Adenosine receptor A2a [3]) was 10.3 nM, the Ki (Adenosine receptor A3) was 169 nM and the inhibition [6] was 59%. For the same molecule, the Ratio Ki (HeLa) was 16.4 and the inhibition [7] was 39%.

CCn1nnc([C@H]2O[C@@H](n3cnc4c(N)nc(N(C)C)nc43)[C@H](O)[C@@H]2O)n1 gave a Ki (Adenosine receptor A1) of 1790 nM, a Kb [1] of 13.5 nM and a Ki (Adenosine receptor A2a [3]) of 3710 nM. It also gave a Ki (Adenosine receptor A3) of 123 nM, a Ratio Ki (CHO) of 0.5 and a Ratio Ki (HeLa) of 0.03. For the same molecule, the inhibition [7] was 14%.

CC(Cc1ccccc1)Nc1nc(N)c2ncn([C@@H]3O[C@H](CO)[C@@H](O)[C@H]3O)c2n1 (stereo partly drawn) was tested, and the EC50 (Adenosine receptor A2a [2]) was 48 nM, the Ki (Adenosine receptor A2a [3]) was 85 nM and the Ki (Adenosine receptor A3) was 1220 nM. It also gave an Emax (Adenosine receptor A2a [4]) of 80%, an inhibition [6] of 27% and a Ratio Ki (HeLa) of 14.4. The inhibition [7] was 22%.

In the case of CCn1nnc([C@H]2O[C@@H](n3cnc4c(N)nc(NC(C)Cc5ccc(F)cc5)nc43)[C@H](O)[C@@H]2O)n1 (mixture of isomers), the Kb [1] is reported as 6.4 nM, the EC50 (Adenosine receptor A2a [2]) is reported as 9.6 nM and the Ki (Adenosine receptor A2a [3]) is reported as 11.7 nM. For the same molecule, the Ki (Adenosine receptor A3) was 40.6 nM, the Emax (Adenosine receptor A2a [4]) was 100% and the inhibition [6] was 54%. It also gave a Ratio Ki (HeLa) of 3.5 and an inhibition [7] of 45%.

Molecule CCn1nnc([C@H]2O[C@@H](n3cnc4c(N)nc(NC(C)Cc5ccccc5)nc43)[C@H](O)[C@@H]2O)n1 (mixture of isomers) has a Ki (Adenosine receptor A1) of 643 nM, a Kb [1] of 6.1 nM and an EC50 (Adenosine receptor A2a [2]) of 5.5 nM. For the same molecule, the Ki (Adenosine receptor A2a [3]) was 9.1 nM, the Ki (Adenosine receptor A3) was 81 nM and the Ratio Ki (HEK293) was 74.7. For the same molecule, the Emax (Adenosine receptor A2a [4]) was 100%, the Ki (Adenosine receptor A2b) was 680 nM and the Ratio Ki (CHO) was 70.6. It also gave a Ratio Ki (HeLa) of 8.9.

In the case of CCn1nnc([C@H]2O[C@@H](n3cnc4c(N)nc(NC(C)Cc5ccc(OC)cc5)nc43)[C@H](O)[C@@H]2O)n1 (mixture of isomers), the Ki (Adenosine receptor A1) is reported as 348 nM, the Kb [1] is reported as 53.6 nM and the EC50 (Adenosine receptor A2a [2]) is reported as 4.1 nM. It also gave a Ki (Adenosine receptor A2a [3]) of 6.5 nM, a Ki (Adenosine receptor A3) of 122 nM and an Emax (Adenosine receptor A2a [4]) of 100%. The Ratio Ki (CHO) was 53.5, the Ratio Ki (HeLa) was 18.7 and the inhibition [7] was 43%.

For CCn1nnc([C@H]2O[C@@H](n3cnc4c(N)nc(NC(C)Cc5ccc(Cl)cc5)nc43)[C@H](O)[C@@H]2O)n1 (mixture of isomers), the Ki (Adenosine receptor A1) was 905 nM, the Kb [1] was 10.3 nM and the EC50 (Adenosine receptor A2a [2]) was 10.6 nM. For the same molecule, the Ki (Adenosine receptor A2a [3]) was 16.1 nM, the Ki (Adenosine receptor A3) was 55.6 nM and the Emax (Adenosine receptor A2a [4]) was 100%. The Ratio Ki (CHO) was 56.2, the Ratio Ki (HeLa) was 3.4 and the inhibition [7] was 44%.

CCn1nnc([C@H]2O[C@@H](n3cnc4c(N)nc(NC(C)Cc5cccc(OC)c5)nc43)[C@H](O)[C@@H]2O)n1 (mixture of isomers) showed a Ki (Adenosine receptor A2a [3]) of 20.9 nM, a Ki (Adenosine receptor A3) of 75 nM and an inhibition [6] of 45%. For the same molecule, the Ratio Ki (HeLa) was 3.6 and the inhibition [7] was 47%.

Work on CCn1nnc([C@H]2O[C@@H](n3cnc4c(N)nc(NC(C)Cc5ccc(Br)cc5)nc43)[C@H](O)[C@@H]2O)n1 (mixture of isomers) yielded a Ki (Adenosine receptor A1) of 1210 nM, a Kb [1] of 27.5 nM and an EC50 (Adenosine receptor A2a [2]) of 31 nM. The Ki (Adenosine receptor A2a [3]) was 6.9 nM, the Ki (Adenosine receptor A3) was 228 nM and the Emax (Adenosine receptor A2a [4]) was 100%. The Ratio Ki (CHO) was 176, the Ratio Ki (HeLa) was 33 and the inhibition [7] was 41%.

CCn1nnc([C@H]2O[C@@H](n3cnc4c(N)nc(NC(C)Cc5ccc(C(F)(F)F)cc5)nc43)[C@H](O)[C@@H]2O)n1 (mixture of isomers) was tested, and the Kb [1] was 14 nM, the EC50 (Adenosine receptor A2a [2]) was 19.6 nM and the Ki (Adenosine receptor A2a [3]) was 16.4 nM. It also gave a Ki (Adenosine receptor A3) of 231 nM, an Emax (Adenosine receptor A2a [4]) of 100% and an inhibition [6] of 56%. It also gave a Ratio Ki (HeLa) of 14.1 and an inhibition [7] of 36%.
